Assays:
ROCK1 kinase = biological target: T1, ROCK1 kinase (Homo sapiens, UniProt Q13464); test: In vitro evaluation of ROCK1 kinase selectivity (HTRF KinEASE-STK time-resolved fluorometric assay); format: biochemical
T1 construct: purchased Invitrogen
Experimental: ROCK1 activity was detected using a 96-well (Cisbio) time-resolved fluorometric assay. The assay for ROCK1 was performed in the following assay buffer: 5 mM MgCl2 (Sigma), 1 mM DTT (Sigma) and 1× kinase buffer. The kinase buffer was used for dilution. 7.5 μL of ROCK1 kinase (Invitrogen) was added to a 96-well microplate to reach a final concentration of 0.4 ng/μL, and then 0.25 μL of test compound (DMSO content: 1%) was added. The mixture was incubated at room temperature for 0.5 h. To start the reaction, the kinase buffer was also used to mix ATP (Aladdin) and the substrate STK-substrate 2-biotin. 7.5 μL of the mixed solution was added to the microplate to reach final concentrations of 3.53 μM and 1 μM. The resulting mixture was incubated for 2 h at room temperature. […] was mixed with STK antibody-Cryptate, and then an appropriate volume of the mixture was mixed with an equal volume of streptavidin-XL665. 10 μL of the resulting mixture was added to stop the reaction. After further incubation for about 1 h, the microplate was read on a Molecular Devices SpectraMax i3x multifunctional microplate reader. The kinase buffer, the STK-substrate 2-biotin, the detection buffer, the STK antibody-Cryptate, and the streptavidin-XL665 were all from HTRF KinEASE-STK kit (Cisbio, 1000 tests, 61[…]).

ROCK2 kinase = biological target: T2, ROCK2 kinase (Homo sapiens, UniProt O75116); test: In vitro evaluation of ROCK2 kinase activity (HTRF KinEASE-STK time-resolved fluorometric assay); format: biochemical
T2 construct: purchased Invitrogen PV3759
T2 sequence (O75116 whole entry): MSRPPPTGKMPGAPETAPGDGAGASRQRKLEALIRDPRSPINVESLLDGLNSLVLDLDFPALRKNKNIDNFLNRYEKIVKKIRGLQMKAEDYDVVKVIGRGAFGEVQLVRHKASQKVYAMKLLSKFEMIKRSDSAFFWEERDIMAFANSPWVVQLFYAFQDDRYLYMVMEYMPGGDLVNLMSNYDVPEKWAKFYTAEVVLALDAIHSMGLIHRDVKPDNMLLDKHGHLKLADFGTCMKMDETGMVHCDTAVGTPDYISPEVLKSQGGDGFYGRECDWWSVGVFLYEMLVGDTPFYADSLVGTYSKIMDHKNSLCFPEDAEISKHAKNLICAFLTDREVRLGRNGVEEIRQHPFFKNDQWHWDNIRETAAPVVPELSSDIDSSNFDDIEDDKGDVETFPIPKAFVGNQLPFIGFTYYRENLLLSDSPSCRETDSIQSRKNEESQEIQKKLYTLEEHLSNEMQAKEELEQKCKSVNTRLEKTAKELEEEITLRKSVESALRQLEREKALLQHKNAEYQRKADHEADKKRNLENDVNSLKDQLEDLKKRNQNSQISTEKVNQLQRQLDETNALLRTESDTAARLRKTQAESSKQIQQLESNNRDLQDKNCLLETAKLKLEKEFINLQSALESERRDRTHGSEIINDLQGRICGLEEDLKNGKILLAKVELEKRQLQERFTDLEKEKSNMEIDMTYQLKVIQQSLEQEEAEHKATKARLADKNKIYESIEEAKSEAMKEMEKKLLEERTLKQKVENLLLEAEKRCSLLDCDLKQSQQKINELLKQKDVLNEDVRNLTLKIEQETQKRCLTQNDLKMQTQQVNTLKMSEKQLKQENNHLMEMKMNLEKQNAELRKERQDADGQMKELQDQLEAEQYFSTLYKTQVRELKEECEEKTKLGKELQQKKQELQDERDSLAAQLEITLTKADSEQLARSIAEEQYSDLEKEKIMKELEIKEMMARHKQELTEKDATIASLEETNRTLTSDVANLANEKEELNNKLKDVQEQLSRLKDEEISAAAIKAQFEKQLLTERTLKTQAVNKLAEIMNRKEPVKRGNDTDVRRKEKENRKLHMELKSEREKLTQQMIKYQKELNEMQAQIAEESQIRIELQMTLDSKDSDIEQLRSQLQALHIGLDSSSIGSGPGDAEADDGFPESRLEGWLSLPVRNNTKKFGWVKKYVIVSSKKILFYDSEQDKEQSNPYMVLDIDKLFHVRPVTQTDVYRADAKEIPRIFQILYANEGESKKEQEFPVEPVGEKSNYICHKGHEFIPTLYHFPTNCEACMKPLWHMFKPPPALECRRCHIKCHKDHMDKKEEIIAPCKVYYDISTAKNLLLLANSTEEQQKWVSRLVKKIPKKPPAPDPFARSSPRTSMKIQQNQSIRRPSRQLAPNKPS
Experimental: ROCK2 activity screening. ROCK2 activity was detected using a 96-well (Cisbio) time-resolved fluorometric assay. The assay for ROCK2 was performed in the following assay buffer: 5 mM MgCl2 (Sigma), 1 mM DTT (Sigma) and 1× kinase buffer. The kinase buffer was used for dilution. 7.5 μL of ROCK2 kinase (Invitrogen, PV3759) was added to a 96-well microplate to reach a final concentration of 0.4 ng/μL, and then 0.25 μL of test compound (DMSO content: 1% (volume fraction)) was added. The mixture was incubated at room temperature for 0.5 h. To start the reaction, the kinase buffer was used to mix ATP (Aladdin) and the substrate STK-substrate 2-biotin. 7.5 μL of the mixed solution was added to the microplate to reach final concentrations of 6.739 μM and 1 μM. The resulting mixture was incubated for 2 h at room temperature. 5 mL of detection buffer was mixed with STK antibody-Cryptate, and then an appropriate volume of the mixture was mixed with an equal volume of streptavidin-XL665. 10 μL of the resulting mixture was added to the microplate to stop the reaction. After further incubation for about 1 h, the microplate was read on a Molecular Devices SpectraMax i3x multifunctional microplate reader. The kinase buffer, the STK-substrate 2-biotin, the detection buffer, the STK antibody-Cryptate, and the streptavidin-XL665 were all from HTRF KinEASE-STK kit (Cisbio, 1000 tests, 61[…]).

[1] = In vivo pharmacokinetic study in mice; details: mouse, plasma
Description: In Vivo Pharmacokinetic Study of Compounds Disclosed Herein in Mice SPF-grade mice (SPF (Beijing) Biotechnology Co., Ltd.) were fasted overnight (without water deprivation) after adaptive feeding, and then received the compound of the present disclosure by intragastrical administration and bolus injection at tail vein. After administration, plasma of mice was collected at specific time points, and the concentration of the compound in the plasma was detected by LC-MS/MS (AB SCIEX Qtrap4500). The PK parameters of the compounds were statistically analyzed and calculated (WinNonlin V5.2, Pharsight) to show the pharmacokinetic properties of the compounds in mice.

[2] = In vitro cytotoxicity assay in HepG2 cells, CCK-8 method; details: human
Experimental: In vitro cytotoxicity assay for the compounds disclosed herein was performed in HepG2 cells using the CCK-8 method. HepG2 cells (Beina Bio) in the logarithmic growth phase were collected, the concentration of cell suspension was adjusted, and then the cells were plated on a 96-well cell culture plate at 50,000 cells/well. The cells were then incubated overnight in a cell incubator (5%, 37° C.), and after 80-90% cell confluence was achieved, test compound at each concentration gradient or vehicle (DMSO) was added after medium change. The resulting mixture was incubated in the cell incubator (5%, 37° C.) for 48 h. After the treatment, the medium in the plate was discarded. The plate was washed twice with PBS, added with CCK-8 working solution (Beyotime) at 100 μL per well, and then incubated at 37° C. for 1.5 h in the dark. Absorbance at OD450 nm was measured for each well on a microplate reader, and CC50 value of each compound was analyzed and calculated.

T1 sequence (Q13464 whole entry): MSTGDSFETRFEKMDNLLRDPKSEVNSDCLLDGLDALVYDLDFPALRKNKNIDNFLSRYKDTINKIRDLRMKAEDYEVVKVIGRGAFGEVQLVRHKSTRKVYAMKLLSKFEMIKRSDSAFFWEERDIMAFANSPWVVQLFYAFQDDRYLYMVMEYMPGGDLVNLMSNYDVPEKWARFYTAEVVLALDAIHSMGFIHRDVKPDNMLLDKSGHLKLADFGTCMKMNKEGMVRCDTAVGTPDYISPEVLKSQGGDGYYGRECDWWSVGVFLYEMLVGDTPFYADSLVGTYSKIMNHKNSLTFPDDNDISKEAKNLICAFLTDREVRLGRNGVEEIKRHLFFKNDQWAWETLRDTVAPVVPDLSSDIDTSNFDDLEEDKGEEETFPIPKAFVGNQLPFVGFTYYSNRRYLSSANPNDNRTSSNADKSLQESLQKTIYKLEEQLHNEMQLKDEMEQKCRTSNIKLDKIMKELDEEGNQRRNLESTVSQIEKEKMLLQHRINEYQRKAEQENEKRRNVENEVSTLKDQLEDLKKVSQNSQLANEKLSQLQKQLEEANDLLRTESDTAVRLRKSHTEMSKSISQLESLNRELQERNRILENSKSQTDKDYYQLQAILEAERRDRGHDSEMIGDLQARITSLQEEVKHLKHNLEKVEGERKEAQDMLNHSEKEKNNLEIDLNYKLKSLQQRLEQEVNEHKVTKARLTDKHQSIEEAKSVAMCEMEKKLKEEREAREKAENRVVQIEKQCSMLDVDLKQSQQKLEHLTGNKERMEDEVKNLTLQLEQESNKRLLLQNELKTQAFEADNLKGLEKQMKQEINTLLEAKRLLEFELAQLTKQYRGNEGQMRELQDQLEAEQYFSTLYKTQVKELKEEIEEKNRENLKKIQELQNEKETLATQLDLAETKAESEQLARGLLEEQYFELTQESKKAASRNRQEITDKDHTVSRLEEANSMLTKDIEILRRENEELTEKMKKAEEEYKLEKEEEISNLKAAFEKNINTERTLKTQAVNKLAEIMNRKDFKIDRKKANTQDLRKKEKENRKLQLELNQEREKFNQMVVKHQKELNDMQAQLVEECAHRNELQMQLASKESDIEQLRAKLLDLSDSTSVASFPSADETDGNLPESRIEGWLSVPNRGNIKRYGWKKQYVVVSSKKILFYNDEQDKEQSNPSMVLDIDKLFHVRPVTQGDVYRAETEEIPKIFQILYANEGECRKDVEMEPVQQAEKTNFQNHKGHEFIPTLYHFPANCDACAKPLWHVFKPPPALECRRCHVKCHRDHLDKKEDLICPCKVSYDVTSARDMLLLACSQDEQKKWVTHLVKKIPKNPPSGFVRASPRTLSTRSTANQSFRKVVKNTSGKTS

IC50 (ROCK1 kinase) [nM] | IC50 (ROCK2 kinase) [nM] | Compound | other results
500 to 5000 | 50 to 500 | COc1cc(F)cc(CNC(=O)N2CCc3cc(-c4cn[nH]c4)ccc3C2)c1 [Compound T201, N-(3-fluoro-5-methoxybenzyl)-6-(1H-pyrazol-4-yl)-3,4-dihydroisoquinoline-2(1H)-carboxamide] | bioavailability ([1]; 3 mg/kg Po vs Iv): 42.4%; AUC(0-t) ([1]; Iv, 3 mg/kg): 413 ng·h/mL; Cmax ([1]; Iv, 3 mg/kg): 704 ng/mL; AUC(0-t) ([1]; Po, 3 mg/kg): 175 ng·h/mL; Cmax ([1]; Po, 3 mg/kg): 95.5 ng/mL
50 to 500 | ≤ 50 | COc1cc(F)cc(CNC(=O)N2CCCc3cc(-c4cn[nH]c4)ccc32)c1 [Compound T204, N-(3-fluoro-5-methoxybenzyl)-6-(1H-pyrazol-4-yl)-3,4-dihydroquinoline-1(2H)-carboxamide] | CC50 at 48 h [2]: > 50 µM
50 to 500 | ≤ 50 | COc1cc(F)cc(CNC(=O)N2CCOc3cc(-c4cn[nH]c4)ccc32)c1 [Compound T205, N-(3-fluoro-5-methoxybenzyl)-7-(1H-pyrazol-4-yl)-2H-benzo[b][1,4]oxazine-4(3H)-carboxamide] | CC50 at 48 h [2]: > 50 µM
≤ 50 | ≤ 50 | COc1cc(F)cc(CNC(=O)c2ncn3cc(-c4cn[nH]c4)ccc23)c1 [Compound T238, N-(3-fluoro-5-methoxybenzyl)-6-(1H-pyrazol-4-yl)imidazo[1,5-a]pyridine-1-carboxamide] | bioavailability ([1]; 3.4 mg/kg Po vs Iv): 84.6%; AUC(0-t) ([1]; Iv, 3.4 mg/kg): 10500 ng·h/mL; Cmax ([1]; Iv, 3.4 mg/kg): 4940 ng/mL; AUC(0-t) ([1]; Po, 3.4 mg/kg): 8880 ng·h/mL; Cmax ([1]; Po, 3.4 mg/kg): 2130 ng/mL
≤ 50 | ≤ 50 | COc1cc(F)cc(CNC(=O)c2ncn3cc(-c4cn[nH]c4F)ccc23)c1 [Compound T355, 6-(5-fluoro-1H-pyrazol-4-yl)-N-(3-fluoro-5-methoxybenzyl)imidazo[1,5-a]pyridine-1-carboxamide] | CC50 at 48 h [2]: > 100 µM
≤ 50 | ≤ 50 | COc1cc(F)cc([C@@H](C)NC(=O)c2ncn3cc(-c4cn[nH]c4F)ccc23)c1 [Compound T370, (R)-6-(5-fluoro-1H-pyrazol-4-yl)-N-(1-(3-fluoro-5-methoxyphenyl)ethyl)imidazo[1,5-a]pyridine-1-carboxamide] | 
≤ 50 | ≤ 50 | COc1cc(F)cc(CNC(=O)N2CCc3c2ccc(-c2cn[nH]c2)c3F)c1 [Compound T372, 4-fluoro-N-(3-fluoro-5-methoxybenzyl)-5-(1H-pyrazol-4-yl)indoline-1-carboxamide] | 
500 to 5000 | 50 to 500 | O=C(NCc1cccc(OCC2CC2)c1)c1ncn2cc(-c3cn[nH]c3)ccc12 [Compound T376, N-(3-(cyclopropylmethoxy)benzyl)-6-(1H-pyrazol-4-yl)imidazo[1,5-a]pyridine-1-carboxamide] | 

Continued, compound first:

Compound | IC50 (ROCK1 kinase) [nM] | IC50 (ROCK2 kinase) [nM] | other results
COc1cccc([C@@H](CO)NC(=O)N2CCc3cc(-c4cn[nH]c4)c(F)cc32)c1 [Compound T346] | ≤ 50 | ≤ 50 | CC50 at 48 h [2]: 45 µM
O=C(COc1cc(F)cc([C@@H](CO)NC(=O)N2CCc3cc(-c4cn[nH]c4)c(F)cc32)c1)NC1CC(F)(F)C1 [Compound T369, (S)-N-(1-(3-(2-((3,3-difluorocyclobutyl)amino)-2-oxoethoxy)-5-fluorophenyl)-2-hydroxyethyl)-6-fluoro-5-(1H-pyrazol-4-yl)indoline-1-carboxamide] | ≤ 50 | ≤ 50 | 
COc1cc(F)cc(C(CN)NC(=O)N2CCc3cc(-c4cn[nH]c4)c(F)cc32)c1 (stereo not drawn) [Compound T371, N-(2-amino-1-(3-fluoro-5-methoxyphenyl)ethyl)-6-fluoro-5-(1H-pyrazol-4-yl)indoline-1-carboxamide] | ≤ 50 | ≤ 50 | 
COc1cc(F)cc([C@@H](CO)NC(=O)c2ncc3cc(-c4cn[nH]c4)ccn23)c1 [Compound T373, (5)-N-(1-(3-fluoro-5-methoxyphenyl)-2-hydroxyethyl)-7-(1H-pyrazol-4-yl)imidazo[1,5-a]pyridine-3-carboxamide] | ≤ 50 | ≤ 50 | 
COc1cc(F)cc([C@@H](CO)NC(=O)N2CCc3cc(-c4c[nH]nc4F)c(F)cc32)c1 [Compound T374, (S)-6-fluoro-5-(3-fluoro-1H-pyrazol-4-yl)-N-(1-(3-fluoro-5-methoxyphenyl)-2-hydroxyethyl)indoline-1-carboxamide] | ≤ 50 | ≤ 50 | 
O=C(NCc1cc(F)cc(OC(F)F)c1)N1CCc2cc(-c3cn[nH]c3)c(F)cc21 [Compound T375, N-(3-(difluoromethoxy)-5-fluorobenzyl)-6-fluoro-5-(1H-pyrazol-4-yl)indoline-1-carboxamide] | 50 to 500 | ≤ 50 | 
COc1cc(F)cc([C@@H](CO)NC(=O)N2CCc3cc(-c4cn[nH]c4)c(F)cc32)c1 [Compound T377, (S)-6-fluoro-N-(1-(3-fluoro-5-methoxyphenyl)-2-hydroxyethyl)-5-(1H-pyrazol-4-yl)indoline-1-carboxamide] | ≤ 50 | ≤ 50 | 
O=C(NCC1CC1)c1cc(F)cc(CNC(=O)N2CCc3cc(-c4cn[nH]c4)c(F)cc32)c1 [Compound T378, N-(3-((cyclopropylmethyl)carbamoyl)-5-fluorobenzyl)-6-fluoro-5-(1H-pyrazol-4-yl)indoline-1-carboxamide] | ≤ 50 | ≤ 50 | 
CN1CC(NC(=O)c2cccc(CNC(=O)N3CCc4cc(-c5cn[nH]c5)c(F)cc43)c2)C1 [Compound T379, 6-fluoro-N-(3-((1-methylazetidin-3-yl)carbamoyl)benzyl)-5-(1H-pyrazol-4-yl)indoline-1-carboxamide] | ≤ 50 | ≤ 50 | 
COc1cc(F)cc([C@@H](CO)NC(=O)N2CCc3cc(-c4c[nH]nc4C)c(F)cc32)c1 [Compound T381, (S)-6-fluoro-N-(1-(3-fluoro-5-methoxyphenyl)-2-hydroxyethyl)-5-(3-methyl-1H-pyrazol-4-yl)indoline-1-carboxamide] | ≤ 50 | ≤ 50 | 
O=C(NCC1CC1)c1cccc(CNC(=O)N2CCc3cc(-c4cn[nH]c4)c(F)cc32)c1 [Compound T382, N-(3-((cyclopropylmethyl)carbamoyl)benzyl)-6-fluoro-5-(1H-pyrazol-4-yl)indoline-1-carboxamide] | ≤ 50 | ≤ 50 | 
COc1cccc(CCC(=O)N2CCc3cc(-c4c[nH]nc4N)c(F)cc32)c1 [Compound T383] | 500 to 5000 | 500 to 5000 | 
O=C(N[C@H](CO)c1cc(F)cc(OCC2CC2)c1)N1CCc2cc(-c3cn[nH]c3)c(F)cc21 [Compound T386, (S)-N-(1-(3-(cyclopropylmethoxy)-5-fluorophenyl)-2-hydroxyethyl)-6-fluoro-5-(1H-pyrazol-4-yl)indoline-1-carboxamide] | 50 to 500 | ≤ 50 | 
O=C(NC1CCCC1)c1cc(F)cc(C(CO)NC(=O)N2CCc3cc(-c4cn[nH]c4)c(F)cc32)c1 (stereo not drawn) [Compound T389, N-(1-(3-(cyclopentylcarbamoyl)-5-fluorophenyl)-2-hydroxyethyl)-6-fluoro-5-(1H-pyrazol-4-yl)indoline-1-carboxamide] | ≤ 50 | ≤ 50 | 
CCOc1cc(F)cc([C@@H](CO)NC(=O)N2CCc3cc(-c4cn[nH]c4)c(F)cc32)c1 [Compound T390, (S′)-N-(1-(3-ethoxy-5-fluorophenyl)-2-hydroxyethyl)-6-fluoro-5-(1N-pyrazol-4-yl)indoline-1-carboxamide] | 50 to 500 | ≤ 50 | 
